Reference: patent publication US11357230B2, “Herbicidal amides” (FMC Corporation, priority 2017, dated 2022)

How the values were obtained:
Type in all cases: in vivo
[1] = test system: blackgrass (Alopecurus myosuroides); assay: Test A postemergence, blackgrass; conditions: approximately 10 d
Description: (§1) Seeds of plant species selected from barnyardgrass (Echinochloa crus-galli), kochia (Kochia scoparia), ragweed (common ragweed, Ambrosia elatior), ryegrass, Italian (Italian ryegrass, Lolium multiflorum), foxtail, green (green foxtail, Setaria viridis), and pigweed (Amaranthus retroflexus) were planted into a blend of loam soil and sand and treated preemergence with a directed soil spray using test chemicals formulated in a non-phytotoxic solvent mixture which included a surfactant. At the same time, plants selected from these weed species and also wheat (Triticum aestivum), corn (Zea mays), blackgrass (Alopecurus myosuroides), and galium (catchweed bedstraw, Galium aparine) were planted in pots containing the same blend of loam soil and sand and treated with postemergence applications of test chemicals formulated in the same manner. Plants ranged in height from 2 to 10 cm and were in the one- to two-leaf stage for the postemergence treatment. Treated plants and untreated controls were maintained in a greenhouse for approximately 10 d, after which time all treated plants were compared to untreated controls and visually evaluated for injury. Plant response ratings, summarized in Table A, are based on a 0 to 100 scale where 0 is no effect and 100 is complete control. A dash (-) response means no test result.

rice (Oryza sativa) = assay: Test B flooded paddy test, rice; conditions: 250 g ai/ha, Flood (paddy water), 13 to 15 d
Procedure: (§2) Plant species in the flooded paddy test selected from rice (Oryza sativa), sedge, umbrella (small-flower umbrella sedge, Cyperus difformis), ducksalad (Heteranthera limosa), and barnyardgrass (Echinochloa crus-galli) were grown to the 2-leaf stage for testing. At time of treatment, test pots were flooded to 3 cm above the soil surface, treated by application of test compounds directly to the paddy water, and then maintained at that water depth for the duration of the test. Treated plants and controls were maintained in a greenhouse for 13 to 15 d, after which time all species were compared to controls and visually evaluated. Plant response ratings, summarized in Table B, are based on a scale of 0 to 100 where 0 is no effect and 100 is complete control. A dash (-) response means no test result.

[2] = test system: ragweed (common ragweed, Ambrosia elatior); assay: Test A postemergence, ragweed; conditions: approximately 10 d
Description: as §1

[3] = test system: ragweed (common ragweed, Ambrosia elatior); assay: Test A preemergence, ragweed; conditions: approximately 10 d
Description: as §1

[4] = test system: ducksalad (Heteranthera limosa); assay: Test B flooded paddy test, ducksalad; conditions: 250 g ai/ha, Flood (paddy water), 13 to 15 d
Procedure: as §2

[5] = test system: foxtail, green (green foxtail, Setaria viridis); assay: Test A preemergence, green foxtail; conditions: approximately 10 d
Description: as §1

[6] = test system: pigweed (Amaranthus retroflexus); assay: Test A postemergence, pigweed; conditions: approximately 10 d
Description: as §1

[7] = test system: pigweed (Amaranthus retroflexus); assay: Test A preemergence, pigweed; conditions: approximately 10 d
Description: as §1

[8] = test system: barnyardgrass (Echinochloa crus-galli); assay: Test A preemergence, barnyardgrass; conditions: approximately 10 d
Description: as §1

[9] = test system: barnyardgrass (Echinochloa crus-galli); assay: Test A postemergence, barnyardgrass; conditions: approximately 10 d
Description: as §1

[10] = test system: ryegrass, Italian (Italian ryegrass, Lolium multiflorum); assay: Test A preemergence, Italian ryegrass; conditions: approximately 10 d
Description: as §1

[11] = test system: wheat (Triticum aestivum); assay: Test A postemergence, wheat; conditions: approximately 10 d
Description: as §1

kochia (Kochia scoparia) [12] = assay: Test A preemergence, kochia; conditions: approximately 10 d
Description: as §1

kochia (Kochia scoparia) [13] = assay: Test A postemergence, kochia; conditions: approximately 10 d
Description: as §1

[14] = test system: ryegrass, Italian (Italian ryegrass, Lolium multiflorum); assay: Test A postemergence, Italian ryegrass; conditions: approximately 10 d
Description: as §1

[15] = test system: foxtail, green (green foxtail, Setaria viridis); assay: Test A postemergence, green foxtail; conditions: approximately 10 d
Description: as §1

[16] = test system: sedge, umbrella (small-flower umbrella sedge, Cyperus difformis); assay: Test B flooded paddy test, umbrella sedge; conditions: 250 g ai/ha, Flood (paddy water), 13 to 15 d
Procedure: as §2

corn (Zea mays) = assay: Test A postemergence, corn; conditions: approximately 10 d
Description: as §1

[17] = test system: barnyardgrass (Echinochloa crus-galli); assay: Test B flooded paddy test, barnyardgrass; conditions: 250 g ai/ha, Flood (paddy water), 13 to 15 d
Procedure: as §2

[18] = test system: galium (catchweed bedstraw, Galium aparine); assay: Test A postemergence, galium; conditions: approximately 10 d
Description: as §1

Foxtail, Giant [19] = assay: Test A preemergence, giant foxtail; conditions: approximately 10 d
Foxtail, Giant [20] = assay: Test A postemergence, giant foxtail; conditions: approximately 10 d

CN1C[C@H](c2ccc(C(F)(F)F)cc2)[C@@H](C(=O)Nc2cccc(F)c2F)C1=NNC(=O)C(C)(C)C [Compound 1, 2-[(3R,4S)-3-[[(2,3-difluorophenyl)amino]carbonyl]-1-methyl-4-[4-(trifluoromethyl)phenyl]-2-pyrrolidinylidene]hydrazide 2,2-dimethylpropanoic Acid]
20: Plant response rating (0 to 100 scale, 0 is no effect, 100 is complete control) ([14]; 31 g ai/ha)
65: Plant response rating (scale of 0 to 100, 0 is no effect, 100 is complete control) [17]
50: Plant response rating (0 to 100 scale, 0 is no effect, 100 is complete control) ([1]; 125 g ai/ha) | Plant response rating (0 to 100 scale, 0 is no effect, 100 is complete control) ([5]; 31 g ai/ha) | Plant response rating (0 to 100 scale, 0 is no effect, 100 is complete control) ([7]; 31 g ai/ha)
100: Plant response rating (0 to 100 scale, 0 is no effect, 100 is complete control) ([3]; 125 g ai/ha) | Plant response rating (0 to 100 scale, 0 is no effect, 100 is complete control) ([5]; 125 g ai/ha) | Plant response rating (0 to 100 scale, 0 is no effect, 100 is complete control) ([8]; 125 g ai/ha)
10: Plant response rating (0 to 100 scale, 0 is no effect, 100 is complete control) ([1]; 31 g ai/ha) | Plant response rating (0 to 100 scale, 0 is no effect, 100 is complete control) ([18]; 125 g ai/ha)
80: Plant response rating (0 to 100 scale, 0 is no effect, 100 is complete control) ([8]; 31 g ai/ha) | Plant response rating (0 to 100 scale, 0 is no effect, 100 is complete control) ([9]; 125 g ai/ha) | Plant response rating (0 to 100 scale, 0 is no effect, 100 is complete control) ([15]; 125 g ai/ha)
60: Plant response rating (0 to 100 scale, 0 is no effect, 100 is complete control) (kochia (Kochia scoparia) [12]; 125 g ai/ha) | Plant response rating (0 to 100 scale, 0 is no effect, 100 is complete control) ([14]; 125 g ai/ha)
90: Plant response rating (0 to 100 scale, 0 is no effect, 100 is complete control) ([7]; 125 g ai/ha)
30: Plant response rating (scale of 0 to 100, 0 is no effect, 100 is complete control) [4] | Plant response rating (0 to 100 scale, 0 is no effect, 100 is complete control) ([11]; 125 g ai/ha)
0: Plant response rating (scale of 0 to 100, 0 is no effect, 100 is complete control) (rice (Oryza sativa)) | Plant response rating (0 to 100 scale, 0 is no effect, 100 is complete control) ([2]; 31 g ai/ha) | Plant response rating (0 to 100 scale, 0 is no effect, 100 is complete control) ([2]; 125 g ai/ha) | Plant response rating (0 to 100 scale, 0 is no effect, 100 is complete control) ([3]; 31 g ai/ha) | Plant response rating (0 to 100 scale, 0 is no effect, 100 is complete control) ([6]; 31 g ai/ha) | Plant response rating (0 to 100 scale, 0 is no effect, 100 is complete control) ([6]; 125 g ai/ha) | Plant response rating (0 to 100 scale, 0 is no effect, 100 is complete control) ([10]; 31 g ai/ha) | Plant response rating (0 to 100 scale, 0 is no effect, 100 is complete control) ([10]; 125 g ai/ha) | Plant response rating (0 to 100 scale, 0 is no effect, 100 is complete control) ([11]; 31 g ai/ha) | Plant response rating (0 to 100 scale, 0 is no effect, 100 is complete control) (kochia (Kochia scoparia) [12]; 31 g ai/ha) | Plant response rating (0 to 100 scale, 0 is no effect, 100 is complete control) (kochia (Kochia scoparia) [13]; 31 g ai/ha) | Plant response rating (0 to 100 scale, 0 is no effect, 100 is complete control) (kochia (Kochia scoparia) [13]; 125 g ai/ha) | Plant response rating (scale of 0 to 100, 0 is no effect, 100 is complete control) [16] | Plant response rating (0 to 100 scale, 0 is no effect, 100 is complete control) (corn (Zea mays); 31 g ai/ha) | Plant response rating (0 to 100 scale, 0 is no effect, 100 is complete control) ([18]; 31 g ai/ha)
40: Plant response rating (0 to 100 scale, 0 is no effect, 100 is complete control) ([9]; 31 g ai/ha) | Plant response rating (0 to 100 scale, 0 is no effect, 100 is complete control) ([15]; 31 g ai/ha) | Plant response rating (0 to 100 scale, 0 is no effect, 100 is complete control) (corn (Zea mays); 125 g ai/ha)

CN1C[C@H](c2ccc(C(F)(F)F)cc2)[C@@H](C(=O)Nc2cccc(F)c2F)C1=NN1CCOCC1 (relative stereo) [Compound 7]
60: Plant response rating (0 to 100 scale, 0 is no effect, 100 is complete control) ([6]; 125 g ai/ha) | Plant response rating (0 to 100 scale, 0 is no effect, 100 is complete control) (kochia (Kochia scoparia) [13]; 125 g ai/ha) | Plant response rating (0 to 100 scale, 0 is no effect, 100 is complete control) ([18]; 31 g ai/ha)
20: Plant response rating (0 to 100 scale, 0 is no effect, 100 is complete control) (kochia (Kochia scoparia) [12]; 125 g ai/ha)
50: Plant response rating (0 to 100 scale, 0 is no effect, 100 is complete control) (Foxtail, Giant [19]; 31 g ai/ha) | Plant response rating (0 to 100 scale, 0 is no effect, 100 is complete control) ([2]; 125 g ai/ha) | Plant response rating (0 to 100 scale, 0 is no effect, 100 is complete control) (Foxtail, Giant [20]; 125 g ai/ha) | Plant response rating (0 to 100 scale, 0 is no effect, 100 is complete control) ([8]; 125 g ai/ha) | Plant response rating (0 to 100 scale, 0 is no effect, 100 is complete control) ([9]; 125 g ai/ha)
0: Plant response rating (scale of 0 to 100, 0 is no effect, 100 is complete control) (rice (Oryza sativa)) | Plant response rating (0 to 100 scale, 0 is no effect, 100 is complete control) ([2]; 31 g ai/ha) | Plant response rating (0 to 100 scale, 0 is no effect, 100 is complete control) (Foxtail, Giant [20]; 31 g ai/ha) | Plant response rating (0 to 100 scale, 0 is no effect, 100 is complete control) ([3]; 31 g ai/ha) | Plant response rating (0 to 100 scale, 0 is no effect, 100 is complete control) ([3]; 125 g ai/ha) | Plant response rating (0 to 100 scale, 0 is no effect, 100 is complete control) ([6]; 31 g ai/ha) | Plant response rating (0 to 100 scale, 0 is no effect, 100 is complete control) ([7]; 31 g ai/ha) | Plant response rating (0 to 100 scale, 0 is no effect, 100 is complete control) ([9]; 31 g ai/ha) | Plant response rating (0 to 100 scale, 0 is no effect, 100 is complete control) ([10]; 31 g ai/ha) | Plant response rating (0 to 100 scale, 0 is no effect, 100 is complete control) ([10]; 125 g ai/ha) | Plant response rating (0 to 100 scale, 0 is no effect, 100 is complete control) ([11]; 31 g ai/ha) | Plant response rating (0 to 100 scale, 0 is no effect, 100 is complete control) (kochia (Kochia scoparia) [12]; 31 g ai/ha) | Plant response rating (0 to 100 scale, 0 is no effect, 100 is complete control) (kochia (Kochia scoparia) [13]; 31 g ai/ha) | Plant response rating (scale of 0 to 100, 0 is no effect, 100 is complete control) [16] | Plant response rating (0 to 100 scale, 0 is no effect, 100 is complete control) (corn (Zea mays); 31 g ai/ha) | Plant response rating (0 to 100 scale, 0 is no effect, 100 is complete control) (corn (Zea mays); 125 g ai/ha)
30: Plant response rating (0 to 100 scale, 0 is no effect, 100 is complete control) ([1]; 31 g ai/ha) | Plant response rating (0 to 100 scale, 0 is no effect, 100 is complete control) ([1]; 125 g ai/ha) | Plant response rating (0 to 100 scale, 0 is no effect, 100 is complete control) ([14]; 125 g ai/ha)
10: Plant response rating (0 to 100 scale, 0 is no effect, 100 is complete control) ([7]; 125 g ai/ha) | Plant response rating (0 to 100 scale, 0 is no effect, 100 is complete control) ([8]; 31 g ai/ha) | Plant response rating (0 to 100 scale, 0 is no effect, 100 is complete control) ([11]; 125 g ai/ha) | Plant response rating (0 to 100 scale, 0 is no effect, 100 is complete control) ([14]; 31 g ai/ha) | Plant response rating (scale of 0 to 100, 0 is no effect, 100 is complete control) [17]
70: Plant response rating (0 to 100 scale, 0 is no effect, 100 is complete control) ([18]; 125 g ai/ha)
45: Plant response rating (scale of 0 to 100, 0 is no effect, 100 is complete control) [4]
90: Plant response rating (0 to 100 scale, 0 is no effect, 100 is complete control) (Foxtail, Giant [19]; 125 g ai/ha)
